Laboratory results as given in article PMC9751013 (European Journal of Medicinal Chemistry, 2022).

Columns and labels:
[1] = biological target: SARS-CoV-2 papain-like protease (PL^pro) (Severe acute respiratory syndrome coronavirus 2, UniProt P0DTD1); experiment: SARS-CoV-2 PLpro enzyme inhibition screening; type: biochemical
[2] = biological target: T1, dengue virus NS2B/NS3 serine protease (Dengue virus type 2, UniProt P29990); experiment: Dengue virus NS2B/NS3 protease inhibition screening; type: biochemical, dengue virus 2
T1 sequence (P29990 1476-1653 limits assumed): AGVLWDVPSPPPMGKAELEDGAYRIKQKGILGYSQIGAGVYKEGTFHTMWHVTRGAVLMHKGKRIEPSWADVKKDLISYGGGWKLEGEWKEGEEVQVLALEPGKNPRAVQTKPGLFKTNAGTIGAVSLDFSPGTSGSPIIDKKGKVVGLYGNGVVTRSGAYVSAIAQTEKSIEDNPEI

[3] = biological target: T2, SARS-CoV-2 M^pro (Severe acute respiratory syndrome coronavirus 2, UniProt P0DTD1); type: biochemical; conditions: inhibitor at 10-fold IC50, 60 min incubation, 25 h of dialysis
[4] = biological target: T2, SARS-CoV-2 M^pro; type: biochemical
[5] = biological target: hCatB (Homo sapiens, UniProt P07858); experiment: hCatB enzyme inhibition assay; type: biochemical; conditions: hCatB vs hCatL

Row | Compound | inhibition of SARS-CoV-2 PL^pro at 100 μM [1] | inhibitory activity against dengue virus NS2B/NS3 serine protease at 100 μM [2] | enzymatic activity of M^pro recovered after dialysis [3] | binding affinity to SARS-CoV-2 M^pro, fold lower with respect to SPR38 [4] [fold] | Ki hCatB fold higher compared to Ki hCatL [5] [fold]
1 | CC(=O)/C=C/[C@H](C[C@@H]1CCNC1=O)NC(=O)[C@H](CC1CCCCC1)NC(=O)OCc1ccccc1 [SPR41, Benzyl ((S)-3-cyclohexyl-1-oxo-1-(((S,E)-5-oxo-1-((S)-2-oxopyrrolidin-3-yl)hex-3-en-2-yl)amino)propan-2-yl)carbamate] | no inhibition | no inhibitory activity | did not show recovering enzymatic activities | – | –
2 | CCC[C@H](NC(=O)OCc1ccccc1)C(=O)N[C@H](/C=C/C(C)=O)C[C@@H]1CCNC1=O [SPR35, Benzyl ((S)-1-oxo-1-(((S,E)-5-oxo-1-((S)-2-oxopyrrolidin-3-yl)hex-3-en-2-yl)amino)pentan-2-yl)carbamate] | – | – | – | ~7 | –
3 | CC(=O)/C=C/[C@H](C[C@@H]1CCNC1=O)NC(=O)[C@H](CC1CC1)NC(=O)OCc1ccccc1 [SPR39, Benzyl ((S)-3-cyclopropyl-1-oxo-1-(((S,E)-5-oxo-1-((S)-2-oxopyrrolidin-3-yl)hex-3-en-2-yl)amino)propan-2-yl)carbamate] | no inhibition | no inhibitory activity | did not show recovering enzymatic activities | – | ~6
4 | CCCC[C@H](NC(=O)OCc1ccccc1)C(=O)N[C@H](/C=C/C(C)=O)C[C@@H]1CCNC1=O [SPR38, Benzyl ((S)-1-oxo-1-(((S,E)-5-oxo-1-((S)-2-oxopyrrolidin-3-yl)hex-3-en-2-yl)amino)hexan-2-yl)carbamate] | no inhibition | no inhibitory activity | – | – | ~2
